Active and inactive are the calls of the source. The rule behind the calls is not given here.
Tests used:
[1] = target: T1, NAD-dependent protein deacetylase sirtuin-2 (Homo sapiens, UniProt Q8IXJ6); assay: Inhibition of N-terminal His6 tagged human sirtuin 2 (25 to 389 residues) at 25 uM using Cbz-Lys(acetyl)-AMC as substrate after 4 hrs in presence of NAD+ by homogeneous fluorescence based analysis relative to control
T1 sequence (Q8IXJ6 whole entry): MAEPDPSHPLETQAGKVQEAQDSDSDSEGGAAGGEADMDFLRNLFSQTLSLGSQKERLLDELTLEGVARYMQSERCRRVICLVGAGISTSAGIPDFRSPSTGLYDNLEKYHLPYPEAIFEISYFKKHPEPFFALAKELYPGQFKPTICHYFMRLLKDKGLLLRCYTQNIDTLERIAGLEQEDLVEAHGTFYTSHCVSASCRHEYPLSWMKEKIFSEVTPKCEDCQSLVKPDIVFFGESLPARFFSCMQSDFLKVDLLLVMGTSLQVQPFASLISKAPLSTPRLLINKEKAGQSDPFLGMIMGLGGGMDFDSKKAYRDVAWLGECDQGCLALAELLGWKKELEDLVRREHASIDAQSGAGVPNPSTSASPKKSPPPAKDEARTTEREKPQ

[2] = target: T2, NAD-dependent protein deacetylase (Schistosoma mansoni) (UniProt T1VXA1); assay: Inhibition of recombinant Schistosoma mansoni sirtuin 2 (21 to 322 residues) expressed in Escherichia coli BL21(DE3) cells at 25 uM using ZMAL as susbtrate after 1 hr in presence of NAD+ by homogeneous fluorescence based analysis relative to control
T2 sequence (whole entry): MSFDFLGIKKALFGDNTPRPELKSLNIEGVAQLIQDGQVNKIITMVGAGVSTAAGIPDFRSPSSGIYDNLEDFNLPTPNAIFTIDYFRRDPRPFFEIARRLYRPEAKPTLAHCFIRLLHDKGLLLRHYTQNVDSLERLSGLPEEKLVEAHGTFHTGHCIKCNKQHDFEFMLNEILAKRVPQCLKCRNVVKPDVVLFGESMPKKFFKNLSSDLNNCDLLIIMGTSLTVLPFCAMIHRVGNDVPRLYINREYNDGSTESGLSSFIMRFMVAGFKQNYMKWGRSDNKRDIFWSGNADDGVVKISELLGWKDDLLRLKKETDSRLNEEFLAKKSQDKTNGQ

[3] = target: T3, NAD-dependent protein deacetylase (Schistosoma mansoni, UniProt T1VXA1); assay: Inhibition of recombinant Schistosoma mansoni sirtuin 2 (21 to 322 residues) expressed in Escherichia coli BL21(DE3) cells using ZMAL as substrate after 1 hr in presence of NAD+ by homogeneous fluorescence based analysis
T3 sequence (T1VXA1 whole entry): T2 sequence (whole entry)

[4] = target: T1, NAD-dependent protein deacetylase sirtuin-2; assay: Inhibition of N-terminal His6 tagged human sirtuin 2 (25 to 389 residues) using Cbz-Lys(acetyl)-AMC as substrate after 4 hrs in presence of NAD+ by homogeneous fluorescence based analysis
HL-60 = assay: Cytotoxicity against human HL60 cells at 10 uM after 72 hrs by Cell titer MTS dye based analysis; details: hl-60, 72 h
Schistosoma mansoni [5] = assay: Antiparasitic activity against Schistosoma mansoni Puerto Rico assessed as reduction in parasite viability at 10 to 20 uM after 72 hrs by microscopic analysis; assay type: functional, organism-based
Schistosoma mansoni [6] = assay: Antiparasitic activity against adult Schistosoma mansoni Puerto Rico assessed as reduction in worm pairing at 10 to 20 uM after 24 hrs by microscopic analysis; assay type: functional, organism-based
Schistosoma mansoni [7] = assay: Antiparasitic activity against adult Schistosoma mansoni Puerto Rico assessed as reduction in egg laying at 10 to 20 uM after 24 hrs by microscopic analysis; assay type: functional, organism-based

Row | inhibition at 25 µM [1] [%] | inhibition [2] [%] | IC50 [3] [µM] | SMILES | other results
1 | < 15 | 24.8 |  | CC(c1ccc(-c2ccccc2)cc1)N(C)c1ncc2c(N)nc(N)nc2n1 (centres undefined) | 
2 | < 15 | < 15 |  | Nc1nc(N)c2cnc(N3CCc4ccccc4C3)nc2n1 | 
3 | 23.2 | < 15 |  | Nc1nc(N)c2cnc(NC3CCN(Cc4ccccc4)CC3)nc2n1 | 
4 | 35.3 |  | 44.7 | COc1ccc(Oc2ccc(C(C)N(C)c3ncc4c(N)nc(N)nc4n3)cc2)cc1OC (centres undefined) | 
5 | < 15 | < 15 |  | CC1CCCCN1c1ncc2c(N)nc(N)nc2n1 (centres undefined) | 
6 | 40.8 |  | 65.1 | COc1ccc(Nc2ccc(C(C)N(C)c3ncc4c(N)nc(N)nc4n3)cc2)cc1 (centres undefined) | 
7 |  |  | 1.9 | COC1=C(OC)C(=O)C(CCCCCCCCCCO)=C(C)C1=O [IDEBENONE] | IC50 [4]: 15.4 µM
8 | 33.8 |  | 23.1 | COc1cccc(Oc2ccc(C(C)N(C)c3ncc4c(N)nc(N)nc4n3)cc2)c1 (centres undefined) | 
9 |  |  | 14 to 14.5 | CC(=O)Nc1ccc(-c2noc(CC3CCCN(Cc4cccc(F)c4C)C3)n2)cc1 (centres undefined) | IC50 [4]: 3.6 to 8 µM
10 | < 15 | < 15 |  | CC(Nc1ncc2c(N)nc(N)nc2n1)c1ccccc1 (centres undefined) | 
11 | < 15 | < 15 |  | CC(c1ccccc1)N(C)c1ncc2c(N)nc(N)nc2n1 (centres undefined) | 
12 | < 15 | < 15 |  | COc1ccc(CNc2ncc3c(N)nc(N)nc3n2)cc1 | 
13 | < 15 | < 15 |  | Nc1ncc2c(N)nc(N)nc2n1 | 
14 | 21 | 37.5 |  | COc1ccc(Oc2ccc(C(C)Nc3ncc4c(N)nc(N)nc4n3)cc2)cc1 (centres undefined) | 
15 | 7.4 |  | 12.5 | COc1cc(OC)cc(Oc2ccc(C(C)N(C)c3ncc4c(N)nc(N)nc4n3)cc2)c1 (centres undefined) | Activity (HL-60): Non-Toxic; inhibition (Schistosoma mansoni [5]): Active; inhibition (Schistosoma mansoni [6]): Active; inhibition (Schistosoma mansoni [7]): Active
16 |  |  | 14.9 | COc1ccc(Sc2ccc(C(C)N(C)c3ncc4c(N)nc(N)nc4n3)cc2)cc1 (centres undefined) | IC50 [4]: 13.3 µM
17 | 37.5 | 20.3 |  | CC(c1ccc(Oc2ccc(OC(F)(F)F)cc2)cc1)N(C)c1ncc2c(N)nc(N)nc2n1 (centres undefined) | 
18 | 22.1 |  | 2.34 | COc1ccc(Oc2ccc(C(c3ccccc3)N(C)c3ncc4c(N)nc(N)nc4n3)cc2)cc1 (centres undefined) | Activity (HL-60): Non-Toxic; inhibition (Schistosoma mansoni [5]): Active; Imax [2]: 60%; inhibition (Schistosoma mansoni [6]): Active; inhibition (Schistosoma mansoni [7]): Active
19 | 30.6 | 18.4 |  | COc1ccc(Oc2ccc(C(C)N(C)c3ncc4c(N)nc(N)nc4n3)cc2)c2ccccc12 (centres undefined) | 
20 | < 15 | < 15 |  | COc1ccc(C(C)N(C)c2ncc3c(N)nc(N)nc3n2)cc1 (centres undefined) | 
21 | < 15 | 30.5 |  | CCCCCCCC(=O)Nc1ccc(-c2noc(CC3CCCN(Cc4cccc(F)c4C)C3)n2)cc1 (centres undefined) | 
22 | < 15 | 27.6 |  | CC(c1ccc(Oc2ccccc2)cc1)N(C)c1ncc2c(N)nc(N)nc2n1 (centres undefined) | 
23 | < 15 | < 15 |  | COc1ccc(Oc2ccc(CN(C)c3ncc(C#N)c(N)n3)cc2)cc1 | 
24 | < 15 | < 15 |  | CN(Cc1ccccc1)c1ncc2c(N)nc(N)nc2n1 | 
25 | < 15 | < 15 |  | Nc1nc(N)c2cnc(N3CCN(c4ccccc4)CC3)nc2n1 | 
26 | < 15 | < 15 |  | CNC(C)c1ccc(Oc2ccccc2)cc1 (centres undefined) | 
27 | 57.4 |  | 27.7 | COc1ccc(Oc2ccc(C(C(C)C)N(C)c3ncc4c(N)nc(N)nc4n3)cc2)cc1 (centres undefined) | 
28 | 70.4 | 40.3 |  | CC(c1ccc(Oc2ccc(OCc3ccccc3)cc2)cc1)N(C)c1ncc2c(N)nc(N)nc2n1 (centres undefined) | 
29 | < 15 | < 15 |  | CCCCCCCCCC(=O)Nc1ccc(-c2noc(CC3CCCN(Cc4cccc(F)c4C)C3)n2)cc1 (centres undefined) | 
30 | 29.2 |  | 30.8 | COc1cc(Oc2ccc(C(C)N(C)c3ncc4c(N)nc(N)nc4n3)cc2)cc(OC)c1OC (centres undefined) | 
